Tested on: early Delta variant of SARS-CoV-2
Type: cell-based

For `Nc1nnc(Sc2ncc([N+](=O)[O-])s2)s1` [Halicin], the “antiviral effectiveness (virus growth by reverse transcriptase quantitative PCR)” value was “inhibition of virus growth”.

Source: patent publication US20240353338A1 (priority 2023, published 2024)
